Measured values as given in patent US20170143712A1, “Methods of Treating Cancers, Immune and Autoimmune Diseases, and Inflammatory Diseases Based on BTK Occupancy and BTK Resynthesis Rate” (Acerta Pharma B.V., priority 2014, published 2017).

Key:
[1] = system: BCR signaling through BTK; assay: Anti-IgM induced CD86 and CD69 on splenocyte B cells of CIA mice; assay type: in vivo, mouse; settings: splenocytes 3 hr after last dosing on day 14
Procedure: (§1) FIG. 45 illustrates changes in a functional measure of BCR signalling through the CD86 marker. Mouse splenocytes were isolated from spleens from mice that were part of the mouse CIA study semi-therapeutic protocol, 3 hr after the last dosing on day 14 of the treatment and cryopreserved. After thawing, inhibition of anti-IgM-induced PD markers CD86 and CD69 on mouse splenocyte B cells were measured. Error bars represent the standard deviation for the 3 sets of splenocytes analyzed.
as §1, with “FIG. 46” for “FIG. 45”, “the CD69” for “the CD86”
Inhibition of the BCR signaling through BTK was evaluated by ex vivo stimulation of splenocytes using IgM and evaluation of CD86 and CD69 as functional responses of BCR stimulation.

B cell receptor (BCR) = assay: Ex vivo anti-IgM induced CD86 and CD69 expression on splenocyte B cells after oral dosing of mice; assay type: in vivo; settings: Mus musculus, single oral 25 mg/kg, 3-24 hours, read-out: CD86 % inhibition over the entire time course

CC#CC(=O)N1CCC[C@H]1c1nc(-c2ccc(C(=O)Nc3ccccn3)cc2)c2c(N)nccn12 [Formula (II), (S)-4-(8-amino-3-(1-(but-2-ynoyl)pyrrolidin-2-yl)imidazo[1,5-a]pyrazin-1-yl)-N-(pyridin-2-yl)benzamide]
BCR-mediated signaling (anti-IgM induced CD86 and CD69) [1]: dose-responsive decreases in BCR-mediated signaling
inhibition at 25 mg/kg (B cell receptor (BCR)): 67.9%
